Tests used:
Experiment in all cases: relative viability (nuclei count vs DMSO), 5 days (fraction); higher = more cells survive
[1] = compound: CC1=NN=C(O1)C2=NN=C(C=C2)N3CCC(CC3)OC4=C(C=CC(=C4)F)Cl + Cc1cc(Nc2cc(N3CCN(C)CC3)nc(Sc3ccc(NC(=O)C4CC4)cc3)n2)n[nH]1 [Tozasertib] (partner 0.1 µM)
Method in brief: (§1)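 Lung cancer cell lines in 1536-well plates were dosed by pin tool the day after seeding, either with one drug alone or with a fixed anchor-drug dose plus five library-drug doses (not always all listed) in √10 steps. After 5 days, cells were fixed and their nuclei stained in one step (final 0.05% Triton X-100, 1% formaldehyde, 1 ug/ml Hoechst), then counted on 4× images. Relative viability is the nuclei count in treated wells divided by that in vehicle wells. Values are medians of duplicate plates.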

Tosedostat + Navitoclax = compound: CC(C)C[C@@H](C(=O)N[C@H](C(=O)OC1CCCC1)c1ccccc1)[C@H](O)C(=O)NO [Tosedostat] + CC1(C)CCC(c2ccc(Cl)cc2)=C(CN2CCN(c3ccc(C(=O)NS(=O)(=O)c4ccc(N[C@H](CCN5CCOCC5)CSc5ccccc5)c(S(=O)(=O)C(F)(F)F)c4)cc3)CC2)C1 [Navitoclax] (partner 0.5 µM)
Method in brief: as §1

[2] = compound: CC1=NN=C(O1)C2=NN=C(C=C2)N3CCC(CC3)OC4=C(C=CC(=C4)F)Cl
Method in brief: (§2)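 Acceptance criteria were a control CV below 25% and at least one doubling per plate. Lung cancer cell lines in 1536-well plates got five library-drug doses (not always all listed) √10 apart by pinning and were left 5 days with no medium change. Viability divides treated-well nuclei by vehicle-well nuclei and is the median across plates. Nuclei were counted by MetaXpress from 4× Hoechst images.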

Tosedostat = compound: CC(C)C[C@@H](C(=O)N[C@H](C(=O)OC1CCCC1)c1ccccc1)[C@H](O)C(=O)NO [Tosedostat]
Method in brief: as §2

Q: UMC-11 was tested. Which relative viability ([1]; first compound 0.253 µM) did it give?
A: Its relative viability is 0.181.

Q: What about the relative viability ([1]; first compound 0.8 µM) of the same cell line?
A: Its relative viability is 0.184.

Q: And the relative viability ([1]; first compound 2.53 µM)?
A: The relative viability was 0.192.

Q: What about the relative viability ([1]; first compound 8 µM) of the same cell line?
A: Its relative viability is 0.169.

Q: And the relative viability (Tosedostat + Navitoclax; first compound 0.02 µM)?
A: The relative viability was 0.343.

Q: What about the relative viability (Tosedostat + Navitoclax; first compound 0.06325 µM) of the same cell line?
A: The relative viability was 0.309.

Q: What about the relative viability (Tosedostat + Navitoclax; first compound 0.2 µM) of the same cell line?
A: The relative viability was 0.323.

Q: What about the relative viability (Tosedostat + Navitoclax; first compound 0.6325 µM) of the same cell line?
A: Its relative viability is 0.322.

Q: And the relative viability (Tosedostat + Navitoclax; first compound 2 µM)?
A: Its relative viability is 0.287.

Q: What about the relative viability ([2]; 0.253 µM) of the same cell line?
A: The relative viability was 0.634.

Q: And the relative viability ([2]; 0.8 µM)?
A: The relative viability was 0.641.

Q: And the relative viability ([2]; 2.53 µM)?
A: The relative viability was 0.76.

Q: And the relative viability ([2]; 8 µM)?
A: The relative viability was 0.594.

Q: And the relative viability (Tosedostat; 0.02 µM)?
A: The relative viability was 1.1.

Q: And the relative viability (Tosedostat; 0.06325 µM)?
A: The relative viability was 0.994.

Q: And the relative viability (Tosedostat; 0.2 µM)?
A: Its relative viability is 1.03.

Q: And the relative viability (Tosedostat; 0.6325 µM)?
A: The relative viability was 1.04.

Q: And the relative viability (Tosedostat; 2 µM)?
A: The relative viability was 1.05.

From the supplement of paper PMC10307832
